Measurements: PMC11868595, “Safety, pharmacokinetics and efficacy of HA121-28 in patients with advanced solid tumors and RET fusion-positive non-small-cell lung cancer: a multicenter, open-label, single-arm phase 1/2 trial” (Signal Transduction and Targeted Therapy, 2025)

System: patients with advanced solid tumors
Assay: Phase 1 trial: adverse events (CTCAE), DLT and MTD
Assay type: in vivo, human
Experimental: The phase 1 trial was a two-part, multicenter, open-label, nonrandomized study to evaluate the safety and preliminary efficacy of HA121-28.
Safety, tolerability, and PK of HA121-28 was assessed in dose-escalation part. The single-patient accelerated titration was carried out at 25 mg and 50 mg; then, the dose escalation proceeded according to a “3 + 3” design in dose range of 100 to 800 mg. Escalation to a higher dose level was considered by the satisfactory review of safety results from the previous lower dose during the first cycle.
The dose-expansion part aims to further access the safety and efficacy of HA121-28 at the selected doses based on data from the dose-escalation part. The RP2D was determined by investigators in view of a thorough review of safety, PK, and efficacy results.
In phase 1 trial, during the dose-escalation part, patients first administered HA121-28 in a single ascending dose under the fasted state, then followed up for seven days. Then, patients received ascending doses of HA121-28 (q.d.) on a 21-day on and 7-day off treatment scheme for a 28-day cycle. For patients deemed beneficial from the treatment by investigators, treatment could remain until disease progression, or they discontinued from the study. In the dose-expansion part of phase 1, as well as phase 2, patients received HA121-28 (q.d.) at the selected doses on a 21-day on and 7-day off treatment scheme until disease progression, or they discontinued from the study.
Treatment-emergent adverse events (TEAEs) were documented during the entire study period. The predefined adverse event of special interest (AESI) was ≥ grade 3 prolonged QT interval. Tumor imaging was performed using contrast-enhanced computed tomography or magnetic resonance imaging at screening, Day 28 of the first cycle, then approximately every eight weeks till the end of the study for phase 1; in phase 2, imaging was scheduled at screening, and every eight weeks during the first 40 weeks, followed by every 12 weeks for the rest of the study period. RECIST 1.1 was used by the independent review committee or investigators for assessment of tumor response. After the original assessment, a repeated assessment was required around four weeks later to confirm a complete or partial response.
The primary endpoints of phase 1 were to investigate the MTD, dose-limiting toxicities, and the incidence and severity of TEAEs. Each TEAE was graded according to the Common Terminology Criteria for Adverse Events (CTCAE, version 5.0) and coded by Medical Dictionary for Regulatory Activities (MedDRA, version 21.0). The secondary endpoints included calculating PK parameters, assessing the ORR and DCR at the recommended dose by investigators as per RECIST 1.1. The exploratory endpoint was PFS.
If grade 2 or higher toxicity related to the study drug occurs in Groups 1 and 2 (as determined by the investigator), dose escalation will proceed using a 3+3 design starting from that dose level. If no DLT is observed at the 800 mg/d dose level after dose escalation, a meeting of investigators will be convened to decide whether to proceed with further dose escalation based on the available PK data, safety, and tolerability information.
5. Definition of DLT and MTD
The following events related to the study drug (including those that are definitely related, highly likely to be related, and possibly related):
(1) Grade 4 hematologic toxicity or grade 3 neutropenia accompanied by a fever of 38.5℃ or higher, or grade 3 thrombocytopenia accompanied by severe bleeding.
(2) Patients who discontinued the medication for more than 7 days due to unresolved toxicity reactions or who discontinued the medication more than twice due to toxicity […]
(3) In the context of supportive treatment, diarrhea of grade 2 lasting more than 7 days, or grade 3 diarrhea lasting more than 3 days.

COc1cc2c(Nc3ccc(Br)cc3F)ncnc2cc1OCCCCN(C)C.Cl.Cl [HA121-28, N-(4-bromo-2-fluorophenyl)-7-(4-(dimethylamino)butoxy)-6-methoxy quinazolin-4-amine dihydrochloride]
1 (33.3) No. (%): Serious TEAE: Any (Phase 1, 800 mg (N=3))
1 (1.6) No. (%): Serious TRAE: Drug eruption (Phase 1, 600 mg (N=64)) | Serious TRAE: Hemoptysis (Phase 1, 600 mg (N=64)) | Serious TRAE: Hypoalbuminemia (Phase 1, 600 mg (N=64)) | Serious TRAE: Malignant neoplasm progression (Phase 1, 600 mg (N=64)) | Serious TRAE: Prolonged QT interval (Phase 1, 600 mg (N=64)) | Serious TRAE: Sudden cardiac arrest (Phase 1, 600 mg (N=64)) | Serious TRAE: Sudden death (Phase 1, 600 mg (N=64)) | Serious TRAE: Ventricular tachycardia (Phase 1, 600 mg (N=64))
2 (3.1) No. (%): Serious TRAE: Nausea (Phase 1, 600 mg (N=64)) | Serious TRAE: Vomiting (Phase 1, 600 mg (N=64)) | Serious TRAE: Weight loss (Phase 1, 600 mg (N=64))
3 (4.7) No. (%): Serious TRAE: Rash (Phase 1, 600 mg (N=64))
0 No. (%): Serious TRAE: Dyspnea (Phase 1, 600 mg (N=64)) | Serious TRAE: Embolism (Phase 1, 600 mg (N=64)) | Serious TRAE: Erythema multiforme (Phase 1, 600 mg (N=64)) | Serious TRAE: Headache (Phase 1, 600 mg (N=64)) | Serious TRAE: Hydronephrosis (Phase 1, 600 mg (N=64)) | Serious TRAE: Hypertension (Phase 1, 600 mg (N=64)) | Serious TRAE: Intestinal obstruction (Phase 1, 600 mg (N=64)) | Serious TRAE: Intra-abdominal fluid collection (Phase 1, 600 mg (N=64)) | Serious TRAE: Intracranial tumor hemorrhage (Phase 1, 600 mg (N=64)) | Serious TRAE: Liver injury (Phase 1, 600 mg (N=64)) | Serious TRAE: Lung adenocarcinoma (Phase 1, 600 mg (N=64)) | Serious TRAE: Multiple organ dysfunction syndrome (Phase 1, 600 mg (N=64)) | Serious TRAE: Nephrolithiasis (Phase 1, 600 mg (N=64)) | Serious TRAE: Platelet counts decreased (Phase 1, 600 mg (N=64)) | Serious TRAE: Pleural effusion (Phase 1, 600 mg (N=64)) | Serious TRAE: Pneumonia (Phase 1, 600 mg (N=64)) | Serious TRAE: Pneumonitis (Phase 1, 600 mg (N=64)) | Serious TRAE: Pulmonary embolism (Phase 1, 600 mg (N=64)) | Serious TRAE: Pyrexia (Phase 1, 600 mg (N=64)) | Serious TRAE: Rectal hemorrhage (Phase 1, 600 mg (N=64)) | Serious TRAE: Respiratory failure (Phase 1, 600 mg (N=64)) | Serious TRAE: Seizure (Phase 1, 600 mg (N=64)) | Serious TRAE: Septic shock (Phase 1, 600 mg (N=64)) | Serious TRAE: Upper respiratory tract infection (Phase 1, 600 mg (N=64)) | Serious TEAE: ALT increased (Phase 1, 800 mg (N=3)) | Serious TEAE: AST increased (Phase 1, 800 mg (N=3)) | Serious TEAE: Abdominal Pain (Phase 1, 800 mg (N=3)) | Serious TEAE: Abdominal distension (Phase 1, 800 mg (N=3)) | Serious TEAE: Acute cholecystitis (Phase 1, 800 mg (N=3)) | Serious TEAE: Acute pancreatitis (Phase 1, 800 mg (N=3)) | Serious TEAE: Anal abscess (Phase 1, 800 mg (N=3)) | Serious TEAE: Aortic intramural hematoma (Phase 1, 800 mg (N=3)) | Serious TEAE: Arrhythmia (Phase 1, 800 mg (N=3)) | Serious TEAE: Blood bilirubin increased (Phase 1, 800 mg (N=3)) | Serious TEAE: Blood creatinine increased (Phase 1, 800 mg (N=3)) | Serious TEAE: COVID-19 (Phase 1, 800 mg (N=3)) | Serious TEAE: Cardiac tamponade (Phase 1, 800 mg (N=3)) | Serious TEAE: Coronary artery atherosclerosis (Phase 1, 800 mg (N=3)) | Serious TEAE: Death (Phase 1, 800 mg (N=3)) | Serious TEAE: Diarrhea (Phase 1, 800 mg (N=3)) | Serious TEAE: Drug eruption (Phase 1, 800 mg (N=3)) | Serious TEAE: Dyspnea (Phase 1, 800 mg (N=3)) | Serious TEAE: Embolism (Phase 1, 800 mg (N=3)) | Serious TEAE: Erythema multiforme (Phase 1, 800 mg (N=3))
